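96-well plates; 48 h exposure; 5 concentrations. Endpoints by linear interpolation between flanking doses. Not reached: highest tested concentration assigned. GI50: concentration for 50% inhibition of growth. TGI is the concentration that stops growth completely.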 Where a SMILES comes first, the peptide text is derived from it. [ ]: non-standard residue; d: D form. The star is where a group is joined. ξ: configuration not given here. NMeY = CN[C@@H](Cc1ccc(O)cc1)C(=O)O; Cbz = O=C(OCc1ccccc1)*; ξA = CC(N)C(=O)O

Test systems include A498 renal; ACHN renal; COLO 205 colon; HL-60(TB) leukemia; HOP-92 NSCLC; M14 melanoma; MALME-3M melanoma; MDA-N; NCI-H460 lung; T-47D breast.
Holding throughout (experiment): NCI tumour cell line growth inhibition, 48 h

Regarding `CCCCn1cc(C(=O)O)c(=O)c2c3sccc3ccc21`, the TGI in the test with A498 renal, with ACHN renal, in the test on COLO 205 colon, with HL-60(TB) leukemia, in the test on HOP-92 NSCLC and in the test on M14 melanoma was over 100 µM throughout. The TGI in the test with MALME-3M melanoma, in the test on MDA-N, in the test on NCI-H460 lung and with T-47D breast was over 100 µM throughout.
For `CCOC(=O)c1c2c(n(C)c1-c1ccccc1)C(=O)C(C)=CC2=O`, the TGI was found to be 34.8 µM with A498 renal; 20.7 µM with ACHN renal; 4.5 µM with COLO 205 colon; 9.79 µM in the test on HL-60(TB) leukemia; 5.46 µM in the test on HOP-92 NSCLC; 13.5 µM in the test on M14 melanoma. Also, the TGI with MALME-3M melanoma was 22.8 µM; in the test with MDA-N it was 4.08 µM; in the test with NCI-H460 lung, 47.8 µM; in the test with T-47D breast, over 26 µM.
With `COc1ccc(C2CC(c3c(C)nn(-c4ccccc4)c3-c3ccc(C)cc3O)=NN2c2ccccc2)cc1` (stereo unspecified), the TGI with A498 renal is over 100 µM; in the test on ACHN renal, over 67.4 µM; in the test with COLO 205 colon it was over 100 µM; in the test on HL-60(TB) leukemia, over 100 µM; in the test on HOP-92 NSCLC, over 100 µM; in the test with M14 melanoma, over 100 µM. The TGI was over 100 µM in the test with MALME-3M melanoma, over 100 µM in the test with MDA-N, over 41.7 µM in the test on NCI-H460 lung and over 100 µM in the test with T-47D breast.
Turning to `CN(C)CCCn1c2ccccc2c2cnccc21`, the TGI in the test on A498 renal is over 100 µM; in the test with ACHN renal, over 100 µM; in the test with COLO 205 colon it was 30.2 µM; in the test with HL-60(TB) leukemia, 99.8 µM; in the test on HOP-92 NSCLC, over 100 µM; in the test with M14 melanoma it was 33 µM. The TGI was 83.3 µM with MALME-3M melanoma, over 100 µM in the test with MDA-N, 67 µM in the test with NCI-H460 lung and over 100 µM with T-47D breast.
As to `O=[N+]([O-])c1ccc2nc3ccc([N+](=O)[O-])cn3c2c1`, the TGI in the test on A498 renal, in the test on ACHN renal, in the test with COLO 205 colon, in the test on HL-60(TB) leukemia, in the test on HOP-92 NSCLC and with M14 melanoma was over 100 µM throughout. The TGI in the test on MALME-3M melanoma, in the test on MDA-N, in the test with NCI-H460 lung and in the test with T-47D breast was over 100 µM throughout.
Take `O=C(Nc1cccc2nsnc12)c1cc2c(cc1Cl)Sc1nccn1S2(=O)=O`: the TGI in the test on A498 renal amounted to 26.5 µM; with ACHN renal, 35.9 µM; in the test on COLO 205 colon, 33.3 µM; in the test with HL-60(TB) leukemia it was 3.72 µM; in the test on HOP-92 NSCLC, 25.2 µM; in the test with M14 melanoma, 42.5 µM. Also, the TGI was over 100 µM in the test with MALME-3M melanoma, 34.3 µM in the test on MDA-N, 5.98 µM in the test on NCI-H460 lung and 7.04 µM with T-47D breast.
`CCOC(=O)C1C/C(C)=C(/C)SCCCS1` (stereo unspecified): the TGI with A498 renal is over 100 µM; with ACHN renal, over 100 µM; in the test with COLO 205 colon, over 100 µM; with HL-60(TB) leukemia, 54.6 µM; in the test on HOP-92 NSCLC, over 100 µM; in the test with M14 melanoma, over 100 µM. For the same compound, the TGI in the test with MALME-3M melanoma, in the test on MDA-N, in the test on NCI-H460 lung and with T-47D breast was over 100 µM in each case.
Turning to `CC1CN=C(c2cccc(OCc3ccc(COc4cccc(C5=NCC(C)N5)c4)cc3)c2)N1` (stereo unspecified), the TGI was over 100 µM in the test on A498 renal; over 100 µM with ACHN renal; 39 µM with COLO 205 colon; over 100 µM in the test on HL-60(TB) leukemia; over 100 µM with HOP-92 NSCLC; over 100 µM in the test with M14 melanoma. The TGI with MALME-3M melanoma is over 100 µM; in the test on MDA-N, over 100 µM; in the test with NCI-H460 lung it was 78.5 µM; in the test on T-47D breast it was over 100 µM.
With `CC(=O)N[C@@H](Cc1ccc(O)cn1)C(=O)NCc1ccc2c(c1)OCO2`, the TGI in the test with A498 renal, in the test on ACHN renal, in the test on COLO 205 colon, in the test with HL-60(TB) leukemia, with HOP-92 NSCLC and in the test with M14 melanoma was over 100 µM throughout. Further, the TGI in the test on MALME-3M melanoma, with MDA-N, with NCI-H460 lung and in the test with T-47D breast was over 100 µM each time.
`COc1ccc(C[C@@H](C(=O)NCC(N)=O)N(C)C(=O)[C@@H]2CCCN2C(=O)[C@H](CC(C)C)NC(=O)C(C)NC(=O)OCc2ccccc2)cc1` (stereo partly specified) (Cbz-[ξA]LP[NMeY](Me)G-NH2): the TGI with A498 renal, in the test with ACHN renal, in the test with COLO 205 colon, in the test on HL-60(TB) leukemia, in the test on HOP-92 NSCLC and in the test on M14 melanoma was over 100 µM each time. In addition, the TGI in the test with MALME-3M melanoma, in the test on MDA-N, in the test on NCI-H460 lung and with T-47D breast was over 100 µM throughout.
For `O=C1C/C(=C\O)C(=O)c2ccccc2N1`, the TGI in the test with A498 renal, in the test with ACHN renal, in the test on COLO 205 colon, in the test on HL-60(TB) leukemia, in the test on HOP-92 NSCLC and in the test with M14 melanoma was over 100 µM throughout. The TGI with MALME-3M melanoma, in the test on MDA-N, in the test on NCI-H460 lung and with T-47D breast was over 100 µM each time.
Take `O=c1oc2ccccc2cc1-c1nc2ccc([N+](=O)[O-])cc2o1`: the TGI in the test on A498 renal was over 100 µM; in the test on ACHN renal, 80.9 µM; in the test on COLO 205 colon, over 100 µM; in the test on HL-60(TB) leukemia, over 100 µM; with HOP-92 NSCLC, over 100 µM; in the test on M14 melanoma, over 100 µM. Also, the TGI with MALME-3M melanoma, in the test on MDA-N, with NCI-H460 lung and in the test with T-47D breast was over 100 µM in each case.
Take `O=C1c2cc3c(cc2CC12Cc1cc4c(cc1C2)CCC4)CCC3`: the TGI in the test on A498 renal, in the test with ACHN renal, with COLO 205 colon, with HL-60(TB) leukemia, with HOP-92 NSCLC and in the test with M14 melanoma was over 100 µM throughout. The TGI in the test with MALME-3M melanoma, with MDA-N, with NCI-H460 lung and with T-47D breast was over 100 µM each time.
On to `COc1cn2c(cc1=O)COc1ccc(-c3ccccc3)cc1-2`, for which the GI50 with A498 renal is 33 µM. The TGI in the test with A498 renal, with ACHN renal, in the test with COLO 205 colon, in the test with HL-60(TB) leukemia, with HOP-92 NSCLC and with M14 melanoma was over 100 µM in each case. Further, the TGI in the test with MALME-3M melanoma was over 84.1 µM; with MDA-N, over 100 µM; in the test on NCI-H460 lung, over 100 µM; in the test with T-47D breast, over 83.3 µM.
On to `CCOC(=O)c1cc(-c2ccc(OC)c(OC)c2)c[nH]1`, for which the TGI in the test on A498 renal, in the test with ACHN renal, in the test on COLO 205 colon, in the test with HL-60(TB) leukemia, in the test with HOP-92 NSCLC and with M14 melanoma was over 10 µM in each case. In addition, the TGI with MALME-3M melanoma, in the test with MDA-N, in the test on NCI-H460 lung and in the test on T-47D breast was over 10 µM in each case.
On to `O=S1(=O)NNC(=NCc2ccc(F)cc2)c2ccccc21`, for which the TGI was over 100 µM in the test on A498 renal; over 100 µM with ACHN renal; over 100 µM in the test on COLO 205 colon; 19.6 µM in the test with HL-60(TB) leukemia; over 83.5 µM in the test on HOP-92 NSCLC; over 100 µM in the test on M14 melanoma. Besides, the TGI was over 100 µM in the test with MALME-3M melanoma, over 100 µM in the test with MDA-N, over 31.6 µM in the test on NCI-H460 lung and over 100 µM with T-47D breast.
In the case of `OC(CC(c1ccccc1)c1ccc(Cl)cc1)c1ccc(Cl)cc1` (stereo unspecified), the TGI in the test on A498 renal was 69.1 µM; in the test with ACHN renal it was 77.6 µM; in the test with COLO 205 colon it was 34.8 µM; with HL-60(TB) leukemia it was 64.6 µM; with HOP-92 NSCLC it was 64.2 µM; in the test on M14 melanoma, over 100 µM. In addition, the TGI in the test with MALME-3M melanoma is 79.1 µM; in the test with MDA-N it was over 100 µM; with NCI-H460 lung, over 100 µM; in the test on T-47D breast it was 88.4 µM.
Take `COC(=O)Cc1c(C2=Nc3ccccc3C2(O)CC(=O)OC)[nH]c2ccccc12` (stereo unspecified): the TGI in the test with A498 renal is over 100 µM; with ACHN renal it was over 100 µM; with COLO 205 colon, 52.3 µM; in the test on HL-60(TB) leukemia it was 62.7 µM; in the test on HOP-92 NSCLC it was over 100 µM; in the test on M14 melanoma, over 100 µM. The TGI with MALME-3M melanoma, in the test with MDA-N, with NCI-H460 lung and in the test on T-47D breast was over 100 µM each time.
As to `Cc1ccc(-c2cc(-c3ccc(Cl)cc3)nc(/N=C3\C(=O)N(CN4CCCCC4)c4ccc(Cl)cc43)n2)cc1`, the TGI in the test with A498 renal was 42.3 µM; with ACHN renal, 92.5 µM; with COLO 205 colon it was 80.5 µM; with HL-60(TB) leukemia, 62.4 µM; with HOP-92 NSCLC it was 51.2 µM; in the test on M14 melanoma, 46.6 µM. For the same compound, the TGI in the test with MALME-3M melanoma was over 100 µM; in the test on MDA-N, 46.2 µM; in the test with NCI-H460 lung, over 100 µM; with T-47D breast, over 100 µM.

(Values after PubChem BioAssay (NCI).)
